Read-outs that look alike come from different tables or passages of the source.
Key:
Assay type in all cases: cell-based
IGROV-ET = experiment: Inhibition of cell growth by colorimetric SRB assay, IGROV-ET; details: Homo sapiens, IGROV-ET, 48 hours exposure; for CC50: cell killing, read-out: LC50 (the source's name); for IC (total growth inhibition): read-out: TGI
Source text: (§1) The finality of these assays is to interrupt the growth of a “in vitro” tumor cell culture by means a continued exhibition of the cells to the sample to be testing.
(§2) Inhibition of Cell Growth by Colorimetric Assay.
(§3) A colorimetric type of assay, using sulforhodamine B (SRB) reaction has been adapted for a quantitative measurement of cell growth and viability (following the technique described by P. A. Skehan, et al., J. Natl. CancerInst. 1990, 82, 1107-1112).
(§4) This form of assay employs 96 well cell culture microplates of 9 mm diameter (T. Mosmann et al., J. of Immuological Methods 1983, 65, 55-63; G. T. Faircloth et al., J. of Tissue and Culture Methods 1988, 11, 201-205). Most of the cell lines are obtained from American Type Culture Collection (ATCC) derived from different human cancer types.
(§5) Cells are maintained in RPMI 1640 10% FBS, supplemented with 0.1 g/L penicillin and 0.1 g/L streptomycin sulfate and then incubated at 37° C., 5% CO2 and 98% humidity. For the experiments, cells were harvested from subconfluent cultures using trypsin and resuspended in fresh medium before plating.
(§6) Cells are seeded in 96 well microtiter plates, at 5×10^3 cells per well in aliquots of 195 μL medium, and they are allowed to attach to the plate surface by growing in drug free medium for 18 hours. Afterward, samples are added in aliquots of 5 μL in a ranging from 10 to 10^−8 μg/mL, dissolved in DMSO/EtOH/PBS (0.5:0.5:99). After 48 hours exposure, the antitumor effect are measured by the SRB methodology: cells are fixed by adding 50 μL of cold 50% (wt/vol) trichloroacetic acid (TCA) and incubated for 60 minutes at 4° C. Plates are washed with deionizer water and dried. One hundred μl of SRB solution (0.4% wt/vol in 1% acetic acid) is added to each microliter well and incubated for 10 minutes at room temperature. Unbound SRB is removed by washing with 1% acetic acid. Plates are air dried and bound stain is solubilized with Tris buffer. Optical densities are read on a automated spectrophotometric plate reader at a single wavelength of 490 nm.
(§7) The values for mean +/−SD of data from triplicate wells are calculated. Some parameters for cellular responses can be calculated: GI=growth inhibition, TGI=total growth inhibition (cytostatic effect) and LC=cell killing (cytotoxic effect).

IGROV = experiment: Inhibition of cell growth by colorimetric SRB assay, IGROV; details: Homo sapiens, 48 hours exposure; for CC50: cell killing, read-out: LC50 (the source's name); for IC (total growth inhibition): read-out: TGI
Source text: as §1, §2, §3, §4, §5, §6, §7

LoVo-Dox = experiment: Inhibition of cell growth by colorimetric SRB assay, LOVO-DOX; details: Homo sapiens, LOVO-DOX, 48 hours exposure; for LC50 (concentration for 50% cell killing): read-out: LC50; for IC (total growth inhibition): read-out: TGI
Source text: as §1, §2, §3, §4, §5, §6, §7

A-549 = experiment: Inhibition of cell growth by colorimetric SRB assay, A-549; details: Homo sapiens, A549, A-549, 48 hours exposure; for CC50: cell killing, read-out: LC50 (the source's name); for IC (total growth inhibition): read-out: TGI
Source text: as §1, §2, §3, §4, §5, §6, §7

LoVo = experiment: Inhibition of cell growth by colorimetric SRB assay, LOVO; details: Homo sapiens, LOVO, 48 hours exposure; for LC50: cell killing, read-out: LC50; for IC (total growth inhibition): read-out: TGI
Source text: as §1, §2, §3, §4, §5, §6, §7

DU-145 = experiment: Inhibition of cell growth by colorimetric SRB assay, DU-145; details: Homo sapiens, DU-145, 48 hours exposure; for CC50: cell killing, read-out: LC50 (the source's name); for IC (total growth inhibition): read-out: TGI
Source text: as §1, §2, §3, §4, §5, §6, §7

HT-29 = experiment: Inhibition of cell growth by colorimetric SRB assay, HT-29; details: Homo sapiens, HT-29, 48 hours exposure; for CC50: cell killing, read-out: LC50 (the source's name); for IC (total growth inhibition): read-out: TGI
Source text: as §1, §2, §3, §4, §5, §6, §7

HeLa = experiment: Inhibition of cell growth by colorimetric SRB assay, HELA; details: Homo sapiens, HELA, 48 hours exposure; for CC50: cell killing, read-out: LC50 (the source's name); for IC (total growth inhibition): read-out: TGI
Source text: as §1, §2, §3, §4, §5, §6, §7

PANC-1 = experiment: Inhibition of cell growth by colorimetric SRB assay, PANC-1; details: Homo sapiens, PANC-1, 48 hours exposure; for CC50: cell killing, read-out: LC50 (the source's name); for IC (total growth inhibition): read-out: TGI
Source text: as §1, §2, §3, §4, §5, §6, §7

LNCaP = experiment: Inhibition of cell growth by colorimetric SRB assay, LN-caP; details: Homo sapiens, LN-caP, 48 hours exposure
Source text: as §1, §2, §3, §4, §5, §6, §7

HeLa-APL = experiment: Inhibition of cell growth by colorimetric SRB assay, HELA-APL; details: Homo sapiens; for CC50: cell killing, read-out: LC50 (the source's name)
Source text: as §1, §2, §3, §4, §5, §6, §7

K-562 = experiment: Inhibition of cell growth by colorimetric SRB assay, K-562; details: Homo sapiens, K562, K-562, 48 hours exposure
Source text: as §1, §2, §3, §4, §5, §6, §7

SK-MEL-28 = experiment: Inhibition of cell growth by colorimetric SRB assay, MEL-28; details: Homo sapiens, SK-MEL-28, MEL-28, 48 hours exposure; for CC50: cell killing, read-out: LC50 (the source's name); for IC (total growth inhibition): read-out: TGI
Source text: as §1, §2, §3, §4, §5, §6, §7

SK-BR-3 = experiment: Inhibition of cell growth by colorimetric SRB assay, SK-BR-3; details: SK-BR-3, 48 hours exposure; for GI50 / CC50: Homo sapiens; for CC50: cell killing, read-out: LC50 (the source's name); for TGI: total growth inhibition
Source text: as §1, §2, §3, §4, §5, §6, §7

[1] = cell killing, read-out: LC50 (the source's name)
[2] = total growth inhibition, read-out: TGI

Row | Compound | GI50 (IGROV-ET) [µM] | CC50 (IGROV-ET) [µM] | IC (total growth inhibition) (IGROV-ET) [µM] | GI50 (IGROV) [µM] | CC50 (IGROV) [µM] | IC (total growth inhibition) (IGROV) [µM] | GI50 (LoVo-Dox) [µM] | LC50 (concentration for 50% cell killing) (LoVo-Dox) [µM] | IC (total growth inhibition) (LoVo-Dox) [µM] | GI50 (A-549) [µM] | CC50 (A-549) [µM] | IC (total growth inhibition) (A-549) [µM] | GI50 (LoVo) [µM] | LC50 (LoVo) [µM] | IC (total growth inhibition) (LoVo) [µM] | GI50 (DU-145) [µM] | CC50 (DU-145) [µM] | IC (total growth inhibition) (DU-145) [µM] | GI50 (HT-29) [µM] | CC50 (HT-29) [µM] | further results
1 | C/C=C\[C@H](C)[C@H]1OC1(C)[C@@H](O[Si](C)(C)C(C)(C)C)[C@@H](COC(C)=O)C(=O)[C@H](CO)[C@@H](O)CC(=O)CC (stereo partly drawn) [Compound 46] | 7.39 | 18.9 | 18.9 | 7.74 | 18.9 | 18.9 | 6.15 | 18.9 | 18.9 | 13.4 | 18.9 | 18.9 | 4.37 | 18.9 | 10 | 9.65 | 18.9 | 18.9 | 15 | 18.9 | IC (total growth inhibition) (HT-29): 18.9 µM; GI50 (HeLa): 8.81 µM; CC50 (HeLa): 18.9 µM; IC (total growth inhibition) (HeLa): 18.9 µM; GI50 (PANC-1): 7.38 µM; CC50 (PANC-1): 18.9 µM; IC (total growth inhibition) (PANC-1): 18.9 µM; GI50 (LNCaP): 5.24 µM; CC50 (LNCaP; [1]): 15.6 µM; IC (total growth inhibition) (LNCaP; [2]): 9.06 µM; GI50 (HeLa-APL; 48 h): 10.1 µM; CC50 (HeLa-APL; HELA-APL, 48 hours exposure): 18.9 µM; GI50 (K-562): 12 µM; CC50 (K-562; [1]): 18.9 µM; IC (total growth inhibition) (K-562; [2]): 18.9 µM; GI50 (SK-MEL-28): 9.89 µM; CC50 (SK-MEL-28): 18.9 µM; IC (total growth inhibition) (SK-MEL-28): 18.9 µM
2 | C/C=C\[C@H](C)[C@H]1OC1(C)[C@@H](O)[C@@H](CO)C(=O)[C@@H](CO)[C@H](O)CC(=O)CC (stereo partly drawn) [3d + 4d] | 17.1 | 26.8 | 26.8 | 20.5 | 26.8 | 26.8 | 26.8 | 26.8 | 26.8 | 26.8 | 26.8 | 26.8 | 26.8 | 26.8 | 26.8 | 26.8 | 26.8 | 26.8 | 26.8 | 26.8 | GI50 (SK-BR-3): 20.5 µM; CC50 (SK-BR-3): 26.8 µM; TGI (SK-BR-3): 2.68E−05 Molar; IC (total growth inhibition) (HT-29): 26.8 µM; GI50 (HeLa): 26.8 µM; CC50 (HeLa): 26.8 µM; IC (total growth inhibition) (HeLa): 26.8 µM; GI50 (PANC-1): 13.5 µM; CC50 (PANC-1): 26.8 µM; IC (total growth inhibition) (PANC-1): 26.8 µM; CC50 (HeLa-APL; HELA-APL, 48 hours exposure): 26.8 µM; GI50 (HeLa-APL; HELA-APL, 48 hours exposure, read-out: GI50): 26.8 µM; IC (total growth inhibition) (HeLa-APL; HELA-APL, 48 hours exposure, total growth inhibition, read-out: TGI): 26.8 µM; GI50 (SK-MEL-28): 26.8 µM; CC50 (SK-MEL-28): 26.8 µM; IC (total growth inhibition) (SK-MEL-28): 26.8 µM
3 | C/C=C\[C@H](C)[C@H]1OC1(C)[C@@H](O[Si](C)(C)C(C)(C)C)[C@@H](CO)C(=O)[C@@H](CO)[C@H](O)CC(=O)CC (stereo partly drawn) [31b + 31d] | 20.5 | 20.5 | 20.5 | 16.5 | 20.5 | 20.5 | 20.5 | 20.5 | 20.5 | 20.5 | 20.5 | 20.5 | 20.5 | 20.5 | 20.5 | 20.5 | 20.5 | 20.5 | 20.5 | 20.5 | GI50 (SK-BR-3): 20.2 µM; CC50 (SK-BR-3): 20.5 µM; TGI (SK-BR-3): 2.05E−05 Molar; IC (total growth inhibition) (HT-29): 20.5 µM; GI50 (HeLa): 20.5 µM; CC50 (HeLa): 20.5 µM; IC (total growth inhibition) (HeLa): 20.5 µM; GI50 (PANC-1): 12.6 µM; CC50 (PANC-1): 20.5 µM; IC (total growth inhibition) (PANC-1): 20.5 µM; CC50 (HeLa-APL; HELA-APL, 48 hours exposure): 20.5 µM; GI50 (SK-MEL-28): 20.5 µM; CC50 (SK-MEL-28): 20.5 µM; IC (total growth inhibition) (SK-MEL-28): 20.5 µM
